{"source": "patent US20170174632A1", "about": "“4-OXO-1, 4-DIHYDROQUINOLINE-3-CARBOXAMIDE AS SELECTIVE LIGAND FOR CANNABINOID RECEPTOR 2 FOR DIAGNOSIS AND THERAPY” (priority 2014, published 2017)", "key": {"[1]": {"settings": "cited from earlier work"}, "[2]": {"settings": "in vitro transport assay, radiolabelled KD2; cited from earlier work"}, "CB2 [3]": {"target": "T1, CB2 (Rattus norvegicus, UniProt Q9QZN9)", "T1 sequence (Q9QZN9 1-360)": "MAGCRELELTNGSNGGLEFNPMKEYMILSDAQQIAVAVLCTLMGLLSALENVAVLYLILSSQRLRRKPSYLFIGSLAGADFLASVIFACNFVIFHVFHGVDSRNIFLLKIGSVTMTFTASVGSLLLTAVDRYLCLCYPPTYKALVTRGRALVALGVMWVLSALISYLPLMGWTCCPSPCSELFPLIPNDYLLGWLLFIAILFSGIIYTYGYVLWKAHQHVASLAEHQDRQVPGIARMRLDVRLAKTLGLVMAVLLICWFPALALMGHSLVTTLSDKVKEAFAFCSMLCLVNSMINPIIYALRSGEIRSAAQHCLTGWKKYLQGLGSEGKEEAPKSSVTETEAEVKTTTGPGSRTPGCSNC", "set-up": "host or cells: rats in vivo (Mu et al., J. Neurochem. 2013)", "settings": "cited from earlier work"}, "CB2 [4]": {"target": "T2, CB2 (Homo sapiens, UniProt P34972)", "T2 sequence (P34972 whole entry)": "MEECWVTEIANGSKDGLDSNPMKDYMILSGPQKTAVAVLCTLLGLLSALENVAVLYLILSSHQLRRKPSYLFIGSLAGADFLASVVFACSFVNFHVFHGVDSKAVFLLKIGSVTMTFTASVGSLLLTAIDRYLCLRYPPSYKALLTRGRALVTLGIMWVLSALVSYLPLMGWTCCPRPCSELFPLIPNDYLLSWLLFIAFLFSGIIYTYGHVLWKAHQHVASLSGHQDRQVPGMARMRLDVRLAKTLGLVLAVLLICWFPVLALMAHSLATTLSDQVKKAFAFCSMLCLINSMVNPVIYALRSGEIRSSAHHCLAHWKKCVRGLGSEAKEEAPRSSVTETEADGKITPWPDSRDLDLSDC", "test": "In vitro competitive binding assay, [3H]CP55,940 displacement, hCB2 membranes", "set-up": "purchased PerkinElmer; host or cells: CHO-K1 cells, stably transfected (membrane preparation)", "settings": "CHO-K1 membranes with human CB2, 1.4 nM [3H]CP55,940, Cheng-Prusoff, three experiments in triplicates; read-out: KiCB2", "quoted_text": "The following test was carried out in order to determine the binding affinity of the compounds of formula I towards CB2 and CB1:\nCompetitive binding reactions were initiated by the addition of a membrane preparation obtained from CHO-K1 cells stably transfected with human CB1 and CB2, respectively, from PerkinElmer (0.5 pig/tube for hCB1 and hCB2) into incubation tubes. As displacer, 1.4 nM [^3H]CP55,940 (PerkinElmer) was used and 6 to 10 concentrations (ranging from 1 pM to 10 μM) of displacing ligand (compound to test) in assay buffer (50 mM TRIS, 1 mM EDTA, 3 mM MgCl2 and 0.05% bovine serum albumin, pH adjusted to 7.4) were added. Nonspecific binding was defined by the presence of 5 μM WIN-55212-2. After incubation at 30° C. for 90 min reactions were terminated by the addition of 3 mL ice cold assay buffer followed by rapid vacuum filtration through a Whatman GF/C filter (pre-soaked for 2 h in 0.05% polyethylenimine in water) and washed twice with 3 mL ice cold assay buffer. The bound activity was counted in a Beckman LS 6500 Liquid Scintillation Counter after adding 3 mL scintillation cocktail (Ultima Gold, Perkin Elmer) and thorough shaking. For each mean value three experiments, each in triplicates, were performed. K, values were determined with the equation from Cheng-Prusoff."}, "[5]": {"test": "Distribution coefficient (log D), shake-flask method", "type": "physicochemical", "settings": "octanol / phosphate buffer pH 7.4, shake-flask, radiotracer", "protocol": "The partition coefficient D was determined by the shake-flask method. Octanol saturated with phosphate buffer pH 7.4 (0.5 mL) and phosphate buffer saturated with octanol (0.5 mL) were mixed with radiotracer of interest (^˜3 MBq). The samples were shaken for 15 min and then centrifuged at 5000 g for 5 min. Radioactivity in each phase was measured in a gamma counter (Wizard, PerkinElmer). Log D is expressed as the logarithm of the ratio between the radioactivity concentrations (Bq/mL) of the octanol and the buffer phase."}, "CB2 [6]": {"system": "CB2", "test": "In vitro autoradiography of rat and mouse spleen slices", "type": "binding", "settings": "0.2 nM radioligand; for binding to spleen slices, displaced by excess of GW405833: blockade 5 μM GW405833", "protocol": "(§1) Rodent (mouse and rat) spleen tissue were embedded in TissueTek and cut into 20 μm-thick sections on a Cryostat HM 505 N (Microm) at −15° C. (blade and block). The slices were absorbed on SuperFrost Plus slides (Menzel) and stored at −80° until used. For the experiment, the slices were thawed on ice for 10 min before conditioning in incubation buffer (50 mM TRIS/HCl, 5% BSA, pH 7.4) on ice for 10 min. The slices were then dripped with 600 μL of radioligand solution (0.2 nM) in incubation buffer and incubated for 15 min at rt in a humid chamber. For blockade conditions, the slices were dripped with 600 μL of a mixture of radioligand and GW405833 (5 μM), a specific CB2 partial agonist. After incubation, the slices were washed with washing buffer (50 mM TRIS/HCl, 1% BSA, 5% EtOH, pH 7.4) for 2 min (2×) and with distilled water for 5 s (2×) on ice. After drying for 10 min at rt, the slices were exposed (30 min) to appropriate phosphor imager plates (Fuji) and the films were scanned in a BAS5000 reader (Fuji)."}, "CB2 [7]": {"target": "T3, CB2 (Mus musculus, UniProt P47936)", "T3 construct": "from tissue; host or cells: brain of living CD1 male mice (PET)", "T3 sequence (P47936 whole entry)": "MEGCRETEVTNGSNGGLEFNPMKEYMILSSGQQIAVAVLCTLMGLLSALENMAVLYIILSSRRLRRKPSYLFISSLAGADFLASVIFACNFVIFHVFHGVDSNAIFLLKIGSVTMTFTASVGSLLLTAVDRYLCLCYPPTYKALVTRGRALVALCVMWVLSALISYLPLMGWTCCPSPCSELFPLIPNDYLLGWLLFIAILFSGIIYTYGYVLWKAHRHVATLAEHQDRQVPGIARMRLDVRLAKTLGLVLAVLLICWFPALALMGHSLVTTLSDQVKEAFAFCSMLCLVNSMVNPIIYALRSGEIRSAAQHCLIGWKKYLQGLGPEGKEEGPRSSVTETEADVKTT", "test": "LPS mouse model of neuroinflammation, small animal PET brain scans", "type": "in vivo, CD1 male mice", "protocol": "As a model of neuroinflammation, six CD1 male mice were injected ip (100-150 μl) with 10 mg/kg lipopolysaccharide (LPS), Escherichia coli strain O111:B4, or vehicle (saline) 5 days prior to PET. […] For blocking conditions, 2.0 mg/kg GW405833 was injected sc 30 min before tracer application. Depth of anesthesia was monitored by measuring respiratory frequency (SA Instruments, Inc., Stony Brook, USA). Body temperature was controlled by a rectal probe and kept at 37° C. by a thermocoupler and a heated air stream. Data were reconstructed in user-defined time frames with a voxel size of 0.3875×0.3875×0.775 mm^3 by 2-dimensional-ordered subsets expectation maximization (2D-OSEM). Random and single but no attenuation correction was applied. PET acquisitions were followed by a CT for anatomical orientation. Image files were analyzed with PMOD 3.5 software (PMOD Technologies Ltd., Zurich, Switzerland). Tissue radioactivity was expressed as standardized uptake values (SUV), that is, the decay-corrected radioactivity per cm^3 divided by the injected radioactivity dose per gram of body weight."}, "CB2 [8]": {"target": "T2, CB2", "test": "Autoradiography with post mortem spinal cord slices of ALS patients", "type": "binding", "set-up": "from tissue; host or cells: human post mortem ALS spinal cord sections", "settings": "0.2 nM tracer, absence or presence of 5 μM GW405833", "protocol": "as §1\nTo evaluate the potential of our novel CB2 PET tracer in imaging ALS, post mortem spinal cord tissues from ALS patients were investigated in autoradiography experiments. Human post mortem ALS spinal cord tissue samples were embedded in TissueTek and cut into 20 μm-thick sections on a Cryostat. Autoradiography was performed as described in section “Example 5”."}, "CB2 [9]": {"target": "T1, CB2", "type": "in vivo, male Wistar rats", "set-up": "from tissue; host or cells: organs of male Wistar rats after iv tracer injection", "settings": "baseline vs blocking with 1.5 mg/kg GW405833, Wistar rats", "protocol": "For blocking conditions, GW405833 (1.5 mg/kg) was injected 30 min before the experiment (n=3). Animals were sacrificed under anesthesia with isoflurane by decapitation at 15 min post injection (p.i). Organs were collected, weighed and radioactivity measured in a gamma-counter. The accumulated radioactivity in the organs was expressed as part per thousand normalized injected dose per gram of tissue (% o normalized ID/g tissue)."}}, "data": [{"smiles": "CCCCCn1cc(C(=O)NC23CC4CC(CC(C4)C2)C3)c(=O)c2cccc(OC)c21", "note": "[KD2, N-(1-adamantyl)-1-pentyl-8-methoxy-4-oxo-1,4-dihydroquinoline-3-carboxamide]", "values": [{"measurement": "log D value at pH 7.4", "setting": "[1]", "result": 3.29}, {"measurement": "blood-brain barrier (BBB) passage", "setting": "[2]", "result": "moderate"}, {"measurement": "distribution in brain", "setting": "CB2 [3]; in vivo PET experiments", "result": "relatively low"}, {"measurement": "spleen uptake", "setting": "CB2 [3]; rats, radiolabelled KD2", "result": "high spleen uptake"}, {"measurement": "Ki", "setting": "CB2 [4]", "result": "1.7 ± 2", "unit": "nM"}]}, {"smiles": "CCCCn1cc(C(=O)NC23CC4CC(CC(C4)C2)C3)c(=O)c2cccc(OC)c21", "note": "[RS-005, N-(1-adamantyl)-1-butyl-8-methoxy-4-oxo-1,4-dihydroquinoline-3-carboxamide]", "values": [{"measurement": "Ki", "setting": "CB2 [4]", "result": "3.3 ± 0.2", "unit": "nM"}]}, {"smiles": "CCCCn1cc(C(=O)NC(C)(C)C)c(=O)c2cccc(OC)c21", "note": "[RS-006, N-(tert-butyl)-1-butyl-8-methoxy-4-oxo-1,4-dihydroquinoline-3-carboxamide]", "values": [{"measurement": "Ki", "setting": "CB2 [4]", "result": "8.2 ± 5.5", "unit": "nM"}]}, {"smiles": "CCCCn1cc(C(=O)NC2CCCC2)c(=O)c2cccc(OC)c21", "note": "[RS-007, 1-butyl-N-cyclopentyl-8-methoxy-4-oxo-1,4-dihydroquinoline-3-carboxamide]", "values": [{"measurement": "Ki", "setting": "CB2 [4]", "result": "19.7 ± 8.8", "unit": "nM"}]}, {"smiles": "CCCCn1cc(C(=O)NCC2CC2)c(=O)c2cccc(OC)c21", "note": "[RS-008, 1-butyl-N-(cyclopropylmethyl)-8-methoxy-4-oxo-1,4-dihydroquinoline-3-carboxamide]", "values": [{"measurement": "Ki", "setting": "CB2 [4]", "result": "78.8 ± 33.1", "unit": "nM"}]}, {"smiles": "COc1cccc2c(=O)c(C(=O)NC(C)(C)C)cn(CCCF)c12", "note": "[RS-011, N-(tert-butyl)-1-(3-fluoropropyl)-8-methoxy-4-oxo-1,4-dihydroquinoline-3-carboxamide]", "values": [{"measurement": "Ki", "setting": "CB2 [4]", "result": "750 ± 780", "unit": "nM"}]}, {"smiles": "CCOCCn1cc(C(=O)NCCc2ccccc2)c(=O)c2cccc(OC)c21", "note": "[RS-022, 1-(2-ethoxyethyl)-8-methoxy-4-oxo-N-phenethyl-1,4-dihydroquinoline-3-carboxamide]", "values": [{"measurement": "Ki", "setting": "CB2 [4]", "result": "360 ± 240", "unit": "nM"}]}, {"smiles": "CCOCCn1cc(C(=O)NC23CC4CC(CC(O)(C4)C2)C3)c(=O)c2cccc(OC)c21", "note": "[RS-028, 1-(2-ethoxyethyl)-N-(3-hydroxyadamantan-1-yl)-8-methoxy-4-oxo-1,4-dihydroquinoline-3-carboxamide]", "values": [{"measurement": "Ki", "setting": "CB2 [4]", "result": "0.8 ± 0.8", "unit": "nM"}]}, {"smiles": "CCOCCn1cc(C(=O)NC23CC4CC(CC(F)(C4)C2)C3)c(=O)c2cccc(OC)c21", "note": "[RS-030, 1-(2-ethoxyethyl)-N-(3-fluoroadamantyl)-8-methoxy-4-oxo-1,4-dihydroquinoline-3-carboxamide]", "values": [{"measurement": "Ki", "setting": "CB2 [4]", "result": "2.1 ± 1.5", "unit": "nM"}]}, {"smiles": "CCOCCn1cc(C(=O)NC23CC4CC(CC(C4)C2)C3)c(=O)c2cccc(OCCF)c21", "note": "[RS-122, N-(1-adamantanyl)-1-(2-ethoxyethyl)-8-(2-fluoroethoxy)-4-oxo-1,4-dihydroquinoline-3-carboxamide]", "values": [{"measurement": "Ki", "setting": "CB2 [4]", "result": "72 ± 102", "unit": "nM"}]}, {"smiles": "COc1cccc2c(=O)c(C(=O)NC34CC5CC(CC(C5)C3)C4)cn(CCOCCF)c12", "note": "[RS-126, N-(1-adamantyl)-1-(2-(2-fluoroethoxy)ethyl)-8-methoxy-4-oxo-1,4-dihydroquinoline-3-carboxamide]", "values": [{"measurement": "Ki", "setting": "CB2 [4]", "result": "1.2 ± 0.8", "unit": "nM"}]}, {"smiles": "CCOCCn1cc(C(=O)NC23CC4CC(CC(C4)C2)C3)c(=O)c2cccc(OC)c21", "note": "[[^11C]RS-016, N-(1-adamantyl)-1-(2-ethoxyethyl)-8-methoxy-4-oxo-1,4-dihydroquinoline-3-carboxamide]", "values": [{"measurement": "log D pH 7.4", "setting": "[5]", "result": 2.78}, {"measurement": "unspecific binding on spleen slices", "setting": "CB2 [6]", "result": "only little unspecific binding"}, {"measurement": "binding to spleen slices, displaced by excess of GW405833", "setting": "CB2 [6]", "result": "high binding to spleen"}, {"measurement": "tracer accumulation in brain regions after LPS treatment compared to vehicle group", "setting": "CB2 [7]; 5 days after 10 mg/kg LPS ip, whole brain, cortex, hippocampus, cerebellum", "result": "Increased"}, {"measurement": "tracer accumulation in brain regions after blockade", "setting": "CB2 [7]; LPS mice, 2 mg/kg GW405833 sc 30 min before tracer", "result": "reduced in all brain regions"}, {"measurement": "binding to ALS spinal cord tissue", "setting": "CB2 [8]", "result": "high specific binding"}, {"measurement": "share of total activity in spleen tissue due to specific CB2 binding", "setting": "CB2 [9]", "result": 78, "unit": "%"}]}, {"smiles": "COc1cccc2c(=O)c(C(=O)NC34CC5CC(CC(C5)C3)C4)cn(CCOCC[18F])c12", "note": "[[^18F]RS-126]", "values": [{"measurement": "logD", "setting": "[5]", "result": 1.99}, {"measurement": "unspecific binding on spleen slices", "setting": "CB2 [6]", "result": "only little unspecific binding"}, {"measurement": "binding to spleen slices, displaced by excess of GW405833", "setting": "CB2 [6]", "result": "high binding to spleen"}]}]}
